Assay results reported in US11104671B2, “Insecticidal compounds” (SYNGENTA PARTICIPATIONS AG, priority 2017, dated 2021).
Read-outs that look alike come from different tables or passages of the source.

Assays:
Assay type in all cases: in vivo
Diabrotica balteata = Diabrotica balteata (corn root worm), maize sprouts sprayed, L2 larvae; details: 96 h, read-out: effect in at least one of the two categories (mortality or growth inhibition); for percent effect (mortality or growth inhibition) at 200 ppm: application rate 200 ppm, 4 days after infestation, L2 larvae
Experimental: Diabrotica Balteata (Corn Root Worm)
Maize sprouts placed onto an agar layer in 24-well microtiter plates were treated with aqueous test solutions prepared from 10,000 ppm DMSO stock solutions by spraying. After drying, the plates were infested with L2 larvae (6 to 10 per well). The samples were assessed for mortality and growth inhibition in comparison to untreated samples 4 days after infestation.

Euschistus heros = Euschistus heros (neotropical brown stink bug), soybean leaves sprayed, N2 nymphs; details: 120 h, read-out: effect in at least one of the two categories (mortality or growth inhibition); for percent effect (mortality or growth inhibition) at 200 ppm: application rate 200 ppm, 5 days after infestation, N2 nymphs
Experimental: Euschistus heros (Neotropical Brown Stink Bug)
Soybean leaves on agar in 24-well microtiter plates were sprayed with aqueous test solutions prepared from 10,000 ppm DMSO stock solutions. After drying the leaves were infested with N2 nymphs. The samples were assessed for mortality and growth inhibition in comparison to untreated samples 5 days after infestation.

Myzus persicae [1] = assay: Myzus persicae (green peach aphid), intrinsic activity; details: 120 h
Text: Myzus persicae (Green Peach Aphid). Intrinsic Activity
Test compounds prepared from 10,000 ppm DMSO stock solutions were applied by pipette into 24-well microtiter plates and mixed with sucrose solution. The plates were closed with a stretched Parafilm. A plastic stencil with 24 holes was placed onto the plate and infested pea seedlings were placed directly on the Parafilm. The infested plate was closed with a gel blotting paper and another plastic stencil and then turned upside down. The samples were assessed for mortality 5 days after infestation.

Plutella xylostella = Plutella xylostella (diamond back moth), artificial diet, L2 larvae; details: 120 h, read-out: effect in at least one of the two categories (mortality or growth inhibition); for percent effect (mortality or growth inhibition) at 200 ppm: application rate 200 ppm, 5 days after infestation, L2 larvae
Experimental: Plutella xylostella (Diamond Back Moth)
24-well microtiter plates with artificial diet were treated with aqueous test solutions prepared from 10,000 ppm DMSO stock solutions by pipetting. After drying, the plates were infested with L2 larvae (10 to 15 per well). The samples were assessed for mortality and growth inhibition in comparison to untreated samples 5 days after infestation.

Spodoptera littoralis = Spodoptera littoralis (Egyptian cotton leaf worm), cotton leaf discs, L1 larvae; details: foliar, 72 h, read-out: control (mortality, anti-feedant effect or growth inhibition)
Experimental: Spodoptera littoralis (Egyptian Cotton Leaf Worm)
Cotton leaf discs were placed onto agar in 24-well microtiter plates and sprayed with aqueous test solutions prepared from 10,000 ppm DMSO stock solutions. After drying the leaf discs were infested with five L1 larvae. The samples were assessed for mortality, anti-feeding effect, and growth inhibition in comparison to untreated samples 3 days after infestation. Control of Spodoptera littoralis by a test sample is given when at least one of the categories mortality, anti-feedant effect, and growth inhibition is higher than the untreated sample.

Tetranychus urticae = Tetranychus urticae (two-spotted spider mite), feeding/contact activity; details: foliar, 192 h, read-out: mortality on mixed population (mobile stages)
Experimental: Tetranychus urticae (Two-Spotted Spider Mite): Feeding/Contact Activity
Bean leaf discs on agar in 24-well microtiter plates were sprayed with aqueous test solutions prepared from 10,000 ppm DMSO stock solutions. After drying the leaf discs were infested with a mite population of mixed ages. The samples were assessed for mortality on mixed population (mobile stages) 8 days after infestation.

Thrips tabaci = Thrips tabaci (onion thrips), feeding/contact activity; details: foliar, 144 h
Experimental: Thrips tabaci (Onion thrips) Feeding/Contact Activity
Sunflower leaf discs were placed on agar in 24-well microtiter plates and sprayed with aqueous test solutions prepared from 10,000 ppm DMSO stock solutions. After drying the leaf discs were infested with a thrips population of mixed ages. The samples were assessed for mortality 6 days after infestation.

Myzus persicae [2] = assay: Myzus persicae (green peach aphid), feeding/contact activity; details: foliar, 144 h
Experimental: Myzus persicae (Green Peach Aphid): Feeding/Contact Activity
Sunflower leaf discs were placed onto agar in a 24-well microtiter plate and sprayed with aqueous test solutions prepared from 10,000 ppm DMSO stock solutions. After drying, the leaf discs were infested with an aphid population of mixed ages. The samples were assessed for mortality 6 days after infestation.

[3] = test rate 12 ppm, 5 days after infestation, sucrose solution, infested pea seedlings, read-out: mortality
[4] = application rate 200 ppm, 3 days after infestation, L1 larvae
[5] = application rate 200 ppm, 8 days after infestation, bean leaf discs
[6] = application rate 200 ppm, 6 days after infestation, sunflower leaf discs, mixed ages, read-out: mortality

CS(=O)(=O)N1CC(NC(=O)c2ccc(C3=CSC(c4cc(Cl)c(Cl)c(Cl)c4)(C(F)(F)F)C3)cc2Cl)CO1 (stereo not drawn) [Compound A1, 2-chloro-N-(2-methylsulfonylisoxazolidin-4-yl)-4-[2-(3,4,5-trichlorophenyl)-2-(trifluoromethyl)-3H-thiophen-4-yl]benzamide]
≥ 80%: percent effect (mortality or growth inhibition) at 200 ppm (Diabrotica balteata) | percent effect (mortality or growth inhibition) at 200 ppm (Euschistus heros) | mortality at 12 ppm (Myzus persicae [1]; [3]) | percent effect (mortality or growth inhibition) at 200 ppm (Plutella xylostella) | percent control (mortality, anti-feedant effect or growth inhibition) at 200 ppm (Spodoptera littoralis; [4]) | mortality at 200 ppm (Tetranychus urticae; [5]) | mortality at 200 ppm (Thrips tabaci; [6])

Cc1cc(C2=NS[C@@](c3cc(Cl)cc(Cl)c3)(C(F)(F)F)C2)ccc1C(=O)NC1CON(S(C)(=O)=O)C1 (stereo partly drawn) [Compound A2, 4-[(5S)-5-(3,5-dichlorophenyl)-5-(trifluoromethyl)-4H-isothiazol-3-yl]-2-methyl-N-(2-methylsulfonylisoxazolidin-4-yl)benzamide]
≥ 80%: percent effect (mortality or growth inhibition) at 200 ppm (Diabrotica balteata) | percent effect (mortality or growth inhibition) at 200 ppm (Euschistus heros) | mortality at 12 ppm (Myzus persicae [1]; [3]) | mortality at 200 ppm (Myzus persicae [2]; [6]) | percent effect (mortality or growth inhibition) at 200 ppm (Plutella xylostella) | percent control (mortality, anti-feedant effect or growth inhibition) at 200 ppm (Spodoptera littoralis; [4]) | mortality at 200 ppm (Tetranychus urticae; [5]) | mortality at 200 ppm (Thrips tabaci; [6])

Cc1cc(C2=COC(c3cc(Cl)cc(Cl)c3)(C(F)(F)F)C2)ccc1C(=O)NC1CON(S(C)(=O)=O)C1 (stereo not drawn) [Compound A3, 4-[2-(3,5-dichlorophenyl)-2-(trifluoromethyl)-3H-furan-4-yl]-2-methyl-N-(2-methylsulfonylisoxazolidin-4-yl)benzamide]
≥ 80%: percent effect (mortality or growth inhibition) at 200 ppm (Diabrotica balteata) | percent effect (mortality or growth inhibition) at 200 ppm (Euschistus heros) | mortality at 12 ppm (Myzus persicae [1]; [3]) | percent effect (mortality or growth inhibition) at 200 ppm (Plutella xylostella) | percent control (mortality, anti-feedant effect or growth inhibition) at 200 ppm (Spodoptera littoralis; [4]) | mortality at 200 ppm (Tetranychus urticae; [5]) | mortality at 200 ppm (Thrips tabaci; [6])

Cc1cc(C2=NO[C@](c3cc(Cl)cc(Cl)c3)(C(F)(F)F)[C@H]2Cl)ccc1C(=O)NC1CON(S(C)(=O)=O)C1 (stereo partly drawn) [Compound A4, 4-[(4S,5R)-4-chloro-5-(3,5-dichlorophenyl)-5-(trifluoromethyl)-4H-isoxazol-3-yl]-2-methyl-N-(2-methylsulfonylisoxazolidin-4-yl)benzamide]
≥ 80%: percent control (mortality or growth inhibition) at 200 ppm (Diabrotica balteata) | percent control (mortality or growth inhibition) at 200 ppm (Euschistus heros) | mortality at 12 ppm (Myzus persicae [1]) | mortality at 200 ppm (Myzus persicae [2]) | percent control (mortality or growth inhibition) at 200 ppm (Plutella xylostella) | percent control (mortality, anti-feedant effect or growth inhibition) at 200 ppm (Spodoptera littoralis) | mortality at 200 ppm (Tetranychus urticae) | mortality at 200 ppm (Thrips tabaci)

Cc1cc(C2=NCC(c3cc(Cl)cc(Cl)c3)(C(F)(F)F)C2)ccc1C(=O)NC1CON(S(C)(=O)=O)C1 (stereo not drawn) [Compound A5, 4-[3-(3,5-dichlorophenyl)-3-(trifluoromethyl)-2,4-dihydropyrrol-5-yl]-2-methyl-N-(2-methylsulfonylisoxazolidin-4-yl)benzamide]
≥ 80%: percent effect (mortality or growth inhibition) at 200 ppm (Diabrotica balteata) | percent effect (mortality or growth inhibition) at 200 ppm (Euschistus heros) | mortality at 12 ppm (Myzus persicae [1]; [3]) | mortality at 200 ppm (Myzus persicae [2]; [6]) | percent effect (mortality or growth inhibition) at 200 ppm (Plutella xylostella) | percent control (mortality, anti-feedant effect or growth inhibition) at 200 ppm (Spodoptera littoralis; [4]) | mortality at 200 ppm (Tetranychus urticae; [5]) | mortality at 200 ppm (Thrips tabaci; [6])

Cc1nc(N2CCC(c3cc(Cl)cc(Cl)c3)(C(F)(F)F)C2)ccc1C(=O)N[C@H]1CON(S(=O)(=O)N(C)C)C1 (stereo partly drawn) [Compound A16, 6-[3-(3,5-dichlorophenyl)-3-(trifluoromethyl)pyrrolidin-1-yl]-N-[(4R)-2-(dimethylsulfamoyl)isoxazolidin-4-yl]-2-methyl-pyridine-3-carboxamide]
≥ 80%: percent effect (mortality or growth inhibition) at 200 ppm (Diabrotica balteata) | percent effect (mortality or growth inhibition) at 200 ppm (Euschistus heros) | mortality at 200 ppm (Myzus persicae [2]; [6]) | percent effect (mortality or growth inhibition) at 200 ppm (Plutella xylostella) | percent control (mortality, anti-feedant effect or growth inhibition) at 200 ppm (Spodoptera littoralis; [4]) | mortality at 200 ppm (Tetranychus urticae; [5]) | mortality at 200 ppm (Thrips tabaci; [6])
